{
  "source": "patent US12133846B2",
  "about": "“Electrophilic androgen receptor (AR) antagonists for AR downregulation and ferroptosis induction in cancer cells” (priority 2019, dated 2024)",
  "key": {"RWPE-1 cells": {"test_system": "RWPE-1 cells", "test": "BSO pretreatment plus 2-63, MTT viability, RWPE-1 cells", "conditions": "BSO up to 100 μM", "method": "Cell viability was then assessed using an MTT assay.\nPCa cells (6×10^3 cells/well) were seeded into 96-well plates overnight and then treated with indicated compounds at indicated concentrations and time durations. The MTT (3-(4, 5-Dimethylthiazol-2-yl)-2,5-diphenyltetrazolium bromide) assay was performed according to the standard protocol. Briefly, MTT (0.5 mg/mL) was incubated with cells at 37° C. for 3 hours. Supernatant was removed, followed by the addition of dimethyl DMSO (100 μl). After incubation for 30 minutes at 37° C., absorbance was read at 570 nm on a microplate reader."}, "VCaP cells": {"test_system": "VCaP cells", "test": "MTT viability assay, VCaP cells", "assay_type": "cell-based", "conditions": "Homo sapiens, VCaP; 72 h, full media, MTT; read-out: IC50, viability of VCaP cells", "from_the_text": "(§1) Biological Characterization. ITC-ARi hybrid drugs effectively reduce the viability of PCa cells. By using an MTT assay, it was first examined if the newly synthesized hybrid drugs affect the viability of CRPC-relevant PCa cells. PCa VCaP cells naturally express abundant wild type FL AR as well as AR splice variants (e.g., AR-V7). These cells were, therefore, used as one of the cell culture models in this work to investigate the drug-caused viability loss and AR downregulation."}, "[1]": {"test_system": "acetylation of α-tubulin and histone H3 (markers for HDAC6 and nuclear HDAC inhibition)", "test": "Western blotting of acetylation markers in VCaP cells", "assay_type": "cell-based", "conditions": "16 h, 2-63 and 12b 5 and 15 μM, SAHA 1 μM", "procedure": "(§2) Western Blotting. […] Proteins in cell lysates (40 μg) were separated using electrophoresis on SDS-PAGE and transferred onto PVDF (polyvinylidenedifluoride) membranes. Membranes were blocked in 5% fat-free milk followed by incubation with primary antibodies overnight at 4° C., and the secondary horseradish peroxidase-conjugated anti-rabbit or anti-mouse antibodies. The blots were developed in the Enhanced Chemiluminescence mixture and detected by ImageQuant™ LAS 4000 imaging system (GE). Density of protein bonds were calculated and analyzed by using imageJ software downloaded from the National Institute of Health website."}, "22Rv1 cells": {"test_system": "22Rv1 cells", "test": "MTT viability assay, 22Rv1 cells", "assay_type": "cell-based", "conditions": "5 μM, 72 h", "from_the_text": "as §1"}, "FL AR and AR-V7 [2]": {"molecular_target": "T1, FL AR and AR-V7 (Homo sapiens, UniProt P10275)", "T1 construct": "Whole cell lysates were subjected to Western blotting and probed with the indicated antibodies; endogenous in cells; host or cells: VCaP", "T1 sequence (P10275 1-920)": "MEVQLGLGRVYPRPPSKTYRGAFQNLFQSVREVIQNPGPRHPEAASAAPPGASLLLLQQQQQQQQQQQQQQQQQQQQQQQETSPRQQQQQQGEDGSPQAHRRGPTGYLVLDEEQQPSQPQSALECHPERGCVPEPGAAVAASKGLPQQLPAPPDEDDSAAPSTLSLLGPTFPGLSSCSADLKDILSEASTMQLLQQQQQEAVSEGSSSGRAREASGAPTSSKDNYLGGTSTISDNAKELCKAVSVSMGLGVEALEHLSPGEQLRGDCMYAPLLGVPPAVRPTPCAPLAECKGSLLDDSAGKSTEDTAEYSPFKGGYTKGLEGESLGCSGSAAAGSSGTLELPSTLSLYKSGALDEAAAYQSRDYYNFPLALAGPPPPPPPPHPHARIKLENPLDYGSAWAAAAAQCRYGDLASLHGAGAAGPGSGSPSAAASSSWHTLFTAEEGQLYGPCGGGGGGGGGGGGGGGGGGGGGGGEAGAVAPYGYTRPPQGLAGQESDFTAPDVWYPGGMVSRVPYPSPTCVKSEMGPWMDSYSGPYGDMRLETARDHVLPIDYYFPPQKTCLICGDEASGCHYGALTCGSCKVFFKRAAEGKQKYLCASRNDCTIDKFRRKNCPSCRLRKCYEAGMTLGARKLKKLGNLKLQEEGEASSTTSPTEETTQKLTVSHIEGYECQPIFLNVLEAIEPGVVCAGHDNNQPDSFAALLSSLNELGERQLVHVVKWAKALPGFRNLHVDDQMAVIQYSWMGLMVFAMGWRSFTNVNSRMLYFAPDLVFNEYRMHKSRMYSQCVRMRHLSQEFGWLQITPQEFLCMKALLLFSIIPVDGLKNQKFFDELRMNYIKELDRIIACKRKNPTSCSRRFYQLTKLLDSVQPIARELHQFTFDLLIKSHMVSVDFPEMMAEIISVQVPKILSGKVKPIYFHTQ", "test": "Western blotting of FL AR and AR-V7 in VCaP cells", "assay_type": "cell-based", "conditions": "full media, 16 h, 2-63, 12b 5 and 15 μM, Enz 10 μM, SAHA 1 μM", "procedure": "as §2"}, "FL AR and AR-V7 [3]": {"molecular_target": "T2, FL AR and AR-V7 (Homo sapiens, UniProt P10275)", "T2 construct": "Whole cell lysates were subjected to Western blotting and probed with the indicated antibodies; endogenous in cells; host or cells: VCaP", "T2 sequence (P10275 1-644 isoform P10275-3)": "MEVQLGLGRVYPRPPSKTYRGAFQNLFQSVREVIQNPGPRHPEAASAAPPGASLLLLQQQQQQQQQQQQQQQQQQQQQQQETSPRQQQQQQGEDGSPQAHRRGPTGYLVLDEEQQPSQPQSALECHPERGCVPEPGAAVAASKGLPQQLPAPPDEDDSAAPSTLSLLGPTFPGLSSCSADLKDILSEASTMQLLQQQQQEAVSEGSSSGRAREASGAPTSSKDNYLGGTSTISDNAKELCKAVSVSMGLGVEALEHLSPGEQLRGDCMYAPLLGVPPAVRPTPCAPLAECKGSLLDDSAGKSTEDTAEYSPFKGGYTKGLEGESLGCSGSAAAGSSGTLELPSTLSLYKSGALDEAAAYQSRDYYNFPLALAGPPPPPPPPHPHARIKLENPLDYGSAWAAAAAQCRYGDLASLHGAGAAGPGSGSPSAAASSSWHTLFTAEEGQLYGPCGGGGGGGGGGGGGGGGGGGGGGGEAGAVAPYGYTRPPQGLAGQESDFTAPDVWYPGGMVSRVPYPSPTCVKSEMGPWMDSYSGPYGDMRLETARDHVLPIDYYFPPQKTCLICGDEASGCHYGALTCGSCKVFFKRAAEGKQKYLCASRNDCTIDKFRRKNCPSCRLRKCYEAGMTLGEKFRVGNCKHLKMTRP", "test": "Western blotting of FL AR and AR-V7 in VCaP cells", "assay_type": "cell-based", "conditions": "full media, 16 h, 2-63, 12b 5 and 15 μM, Enz 10 μM", "procedure": "as §2"}, "[4]": {"test_system": "AR transcriptional activity in MDA-kb2 cells", "test": "cells", "assay_type": "cell-based", "conditions": "DHT 1 nM", "procedure": "MDA-kb2-cell-based ARE luciferase assays were performed to assess the influence of 2-63 and related compounds on AR transcriptional activity. […] Upon androgen stimulation and addition of a luciferase substrate, […], and the intensity is proportional to the extent of AR activation. An agent that either antagonistically competes with DHT for AR binding or reduces the expression of AR diminishes luciferase activity/fluorescence signal in this experimental system. […] 10b (an alcohol) and 11 b (an azide) are synthetic precursors of the ITC hybrid 12b.\nLuciferase Assay. […] For all procedures, cells were incubated at CO2 free condition. Steady-Glo® (Promega Corp., Madison, WI) reagent was added to culture media with shaking for 10 min. Samples (100 μL) were transferred to an opaque 96-well white plate, and luminescence was measured using a luminometer."}, "Hsp90, Hsp70, HO-1": {"test_system": "Hsp90, Hsp70, HO-1", "test": "Western blotting of Hsp90, Hsp70 and HO-1 in VCaP cells", "assay_type": "cell-based", "conditions": "16 h, 5 and 15 μM", "procedure": "as §2"}, "C4-2 cells": {"test_system": "C4-2 cells", "test": "MTT viability assay, C4-2 cells", "assay_type": "cell-based", "conditions": "5 μM, 72 h", "from_the_text": "as §1"}, "LNCaP and RWPE-1 cells": {"test_system": "LNCaP and RWPE-1 cells", "test": "MTT viability, PCa LNCaP versus non-cancerous RWPE-1 cells", "assay_type": "cell-based", "conditions": "72 h, 2.5 to 10 μM", "from_the_text": "Because of the better selectivity and water solubility of 2-63 over 12b, 2-63 was used for further in vitro characterization and mechanistic studies."}},
  "note": "Where “and” joins values, the source holds several entries; their conditions need not be identical. Identical values can stand only once.",
  "data": [
    {"compound": "CCCCS(=N)(=O)CCC(N)C(=O)O", "note": "[BSO, L-buthionine sulfoximine, reference compound]", "values": [
      {"measurement": "enhancement of the potency of 2-63 by BSO in RWPE-1 cells", "setting": "RWPE-1 cells", "result": "does not notably enhance"}
    ]},
    {"compound": "CC1(C)C(=O)N(c2ccc(C#N)c(C(F)(F)F)c2)C(=S)N1c1ccc(CCCCCCN=C=S)nc1", "note": "[12b, 4-(3-(6-(6-Isothiocyanatohexyl)pyridin-3-yl)-4,4-dimethyl-5-oxo-2-thioxoimidazolidin-1-yl)-2-(trifluoromethyl) benzonitrile]", "values": [
      {"measurement": "IC50", "setting": "VCaP cells", "result": 3.89, "unit": "µM"},
      {"measurement": "histone H3 acetylation", "setting": "[1]", "result": "did not show significant effects"},
      {"measurement": "α-tubulin acetylation", "setting": "[1]; SFN 15 μM", "result": "did not show significant effects"},
      {"measurement": "relative potency in viability reduction, 22Rv1 cells", "setting": "22Rv1 cells", "result": "more effective than 12a and 12b>2-63>PEITC-NAC"},
      {"measurement": "FL AR expression", "setting": "FL AR and AR-V7 [2]", "result": "seemed to be more effective"},
      {"measurement": "AR-V7 expression", "setting": "FL AR and AR-V7 [3]", "result": "seemed to be more effective"},
      {"measurement": "AR inhibition at 1 μM relative to Enz, 10b and 11b", "setting": "[4]; 1 μM", "result": "less effective"},
      {"measurement": "suppression of DHT-stimulated luciferase activity", "setting": "[4]; 1-5 μM", "result": "decreased luciferase activity in a dose-dependent manner"},
      {"measurement": "AR inhibition at higher concentrations relative to comparators", "setting": "[4]; 2.5 and 5 μM", "result": "similarly with these non-ITC-containing compounds"},
      {"measurement": "Hsp70 protein level", "setting": "Hsp90, Hsp70, HO-1", "result": "significantly induced"},
      {"measurement": "Hsp90 protein level", "setting": "Hsp90, Hsp70, HO-1", "result": "did not change"},
      {"measurement": "relative potency in viability reduction, C4-2 cells", "setting": "C4-2 cells", "result": "more effective than 12a and 12b>2-63>PEITC-NAC"},
      {"measurement": "differential anti-proliferative effect, LNCaP vs RWPE-1 cells", "setting": "LNCaP and RWPE-1 cells", "result": "almost equally suppressed"}
    ]}
  ]
}
